Assay results published in US9908831B2, “Resist composition, method for forming resist pattern, polyphenolic compound for use in the composition, and alcoholic compound that can be derived therefrom” (Mitsubishi Gas Chemical Company, Inc., priority 2011, dated 2018).

Assays:
Format in all cases: physicochemical
[1] = Solubility test of compound in safe solvent; details: 23° C., visual
Description: (2) Solubility Test of Compound in Safe Solvent
(§1) The solubility of the compound in PGME and PGMEA was evaluated according to the following standard using the dissolution amount in each solvent. For the measurement of the dissolution amount, the compound was precisely weighed in a test tube at 23° C.; and the target solvent was added to the compound so that a predetermined concentration of the liquid to be obtained was set; a ultrasonic wave was applied to the liquid in an ultrasonic washing machine for 30 minutes; and the state of the resulting liquid was visually evaluated.
A: 5.0% by weight≦dissolution amount
B: 3.0% by weight≦dissolution amount<5.0% by weight
C: dissolution amount<3.0% by weight

[2] = Thermal decomposition temperature by DSC; details: 10° C./min to 500° C., nitrogen gas stream
Description: (3) Thermal Decomposition Temperature
The apparatus EXSTAR6000DSC (trade name) manufactured by SII NanoTechnology Inc. was used. About 5 mg of each sample was placed in a non-sealed container made of aluminum, and the temperature was raised to 500° C. at the rate of temperature rise of 10° C./min in a nitrogen gas stream (30 mL/min). The temperature corresponding to a descending peak appeared in the baseline was defined as the thermal decomposition temperature.

[3] = Glass transition temperature by DSC; details: 10° C./min to 300° C., second heating after quench, nitrogen gas stream
Description: (4) Glass Transition Temperature
The apparatus EXSTAR6000DSC (trade name) manufactured by SII NanoTechnology Inc. was used. About 5 mg of each sample was placed in a non-sealed container made of aluminum, and the temperature was raised to 300° C. at the rate of temperature rise of 10° C./min in a nitrogen gas stream (30 mL/min). After the non-sealed container made of aluminum was quenched, again the temperature was raised to 300° C. at the rate of temperature rise of 10° C./min in a nitrogen gas stream (30 mL/min), thereby performing DSC measurement. The temperature corresponding to the middle point (where the specific heat was changed into the half) of a region in which a discontinuous portion appeared in the baseline was defined as the glass transition point.

[4] = Solubility of compound in methyl ethyl ketone (MEK); details: dissolution amount in MEK at 23° C., visual
Description: (1) Solubility of Compound in Methyl Ethyl Ketone (MEK)
as §1, with “MEK” for “PGME and PGMEA”, “MEK at 23° C.” for “each solvent.”
Evaluation A: 50% by weight or more
Evaluation B: 10% by weigh or more and less than 50% by weight
Evaluation C: less than 10% by weight

Oc1ccc2c3c(ccc2c1)Oc1ccc2cc(O)ccc2c1C31c2ccccc2-c2ccccc21 [XBisN-11]
Solubility test of compound in safe solvent PGME [1]: A (A: 5.0% by weight≦dissolution amount) | Solubility test of compound in safe solvent PGMEA [1]: A (A: 5.0% by weight≦dissolution amount) | thermal decomposition temperature [2]: 450 °C | glass transition point [3]: 145 °C | solubility in MEK [4]: B (Evaluation B: 10% by weigh or more and less than 50% by weight)

Oc1ccc2c(C(c3ccc(-c4ccccc4)cc3)c3c(O)ccc4cc(O)ccc34)c(O)ccc2c1 [BisN-1]
Solubility test of compound in safe solvent PGME [1]: A (A: 5.0% by weight≦dissolution amount) | Solubility test of compound in safe solvent PGMEA [1]: A (A: 5.0% by weight≦dissolution amount) | thermal decomposition temperature [2]: 250 °C | glass transition point [3]: 130 °C | solubility in MEK [4]: B (Evaluation B: 10% by weigh or more and less than 50% by weight)

Oc1cccc2c(O)c(C(c3ccc(-c4ccccc4)cc3)c3ccc4c(O)cccc4c3O)ccc12 [BisN-3]
Solubility test of compound in safe solvent PGME [1]: A (A: 5.0% by weight≦dissolution amount) | Solubility test of compound in safe solvent PGMEA [1]: A (A: 5.0% by weight≦dissolution amount) | thermal decomposition temperature [2]: 250 °C | glass transition point [3]: 130 °C | solubility in MEK [4]: B (Evaluation B: 10% by weigh or more and less than 50% by weight)

Oc1ccc2c3c(ccc2c1)Oc1ccc2cc(O)ccc2c1C31CCCCC1 [XBisN-10]
Solubility test of compound in safe solvent PGME [1]: A (A: 5.0% by weight≦dissolution amount) | Solubility test of compound in safe solvent PGMEA [1]: A (A: 5.0% by weight≦dissolution amount) | thermal decomposition temperature [2]: 400 °C | glass transition point [3]: 140 °C | solubility in MEK [4]: B (Evaluation B: 10% by weigh or more and less than 50% by weight)

Oc1ccc2ccc3c(c2c1)C(c1ccc(-c2ccccc2)cc1)c1c(ccc2ccc(O)cc12)O3 [XBisN-2]
Solubility test of compound in safe solvent PGME [1]: A (A: 5.0% by weight≦dissolution amount) | Solubility test of compound in safe solvent PGMEA [1]: A (A: 5.0% by weight≦dissolution amount) | thermal decomposition temperature [2]: 410 °C | glass transition point [3]: 152 °C | solubility in MEK [4]: B (Evaluation B: 10% by weigh or more and less than 50% by weight)

Oc1ccc2ccc(O)c(C(c3ccc(-c4ccccc4)cc3)c3c(O)ccc4ccc(O)cc34)c2c1 [BisN-2]
Solubility test of compound in safe solvent PGME [1]: A (A: 5.0% by weight≦dissolution amount) | Solubility test of compound in safe solvent PGMEA [1]: A (A: 5.0% by weight≦dissolution amount) | thermal decomposition temperature [2]: 250 °C | glass transition point [3]: 130 °C | solubility in MEK [4]: B (Evaluation B: 10% by weigh or more and less than 50% by weight)

Oc1ccc2c3c(ccc2c1)Oc1ccc2cc(O)ccc2c1C3c1cc(C2c3c(ccc4cc(O)ccc34)Oc3ccc4cc(O)ccc4c32)cc(C2c3c(ccc4cc(O)ccc34)Oc3ccc4cc(O)ccc4c32)c1 [XBisN-14]
Solubility test of compound in safe solvent PGME [1]: A (A: 5.0% by weight≦dissolution amount) | Solubility test of compound in safe solvent PGMEA [1]: A (A: 5.0% by weight≦dissolution amount) | thermal decomposition temperature [2]: 410 °C | glass transition point [3]: 152 °C | solubility in MEK [4]: B (Evaluation B: 10% by weigh or more and less than 50% by weight)

Oc1ccc2c(C(c3ccc(C(c4c(O)ccc5cc(O)ccc45)c4c(O)ccc5cc(O)ccc45)cc3)c3c(O)ccc4cc(O)ccc34)c(O)ccc2c1 [BisN-12]
Solubility test of compound in safe solvent PGME [1]: A (A: 5.0% by weight≦dissolution amount) | Solubility test of compound in safe solvent PGMEA [1]: A (A: 5.0% by weight≦dissolution amount) | thermal decomposition temperature [2]: 245 °C | glass transition point [3]: 130 °C | solubility in MEK [4]: B (Evaluation B: 10% by weigh or more and less than 50% by weight)

Oc1ccc2c(C(c3ccc(-c4ccc(C(c5c(O)ccc6cc(O)ccc56)c5c(O)ccc6cc(O)ccc56)cc4)cc3)c3c(O)ccc4cc(O)ccc34)c(O)ccc2c1 [BisN-13]
Solubility test of compound in safe solvent PGME [1]: A (A: 5.0% by weight≦dissolution amount) | Solubility test of compound in safe solvent PGMEA [1]: A (A: 5.0% by weight≦dissolution amount) | thermal decomposition temperature [2]: 245 °C | glass transition point [3]: 130 °C | solubility in MEK [4]: B (Evaluation B: 10% by weigh or more and less than 50% by weight)

Oc1ccc2c(C(c3c(O)ccc4cc(O)ccc34)c3ccc4ccc5cccc6ccc3c4c56)c(O)ccc2c1 [BisN-9]
Solubility test of compound in safe solvent PGME [1]: A (A: 5.0% by weight≦dissolution amount) | Solubility test of compound in safe solvent PGMEA [1]: A (A: 5.0% by weight≦dissolution amount) | thermal decomposition temperature [2]: 260 °C | glass transition point [3]: 140 °C | solubility in MEK [4]: B (Evaluation B: 10% by weigh or more and less than 50% by weight)

Oc1cc2ccccc2c2c1Oc1c(O)cc3ccccc3c1C2c1ccc(-c2ccccc2)cc1 [XBisN-6]
Solubility test of compound in safe solvent PGME [1]: A (A: 5.0% by weight≦dissolution amount) | Solubility test of compound in safe solvent PGMEA [1]: A (A: 5.0% by weight≦dissolution amount) | thermal decomposition temperature [2]: 410 °C | glass transition point [3]: 152 °C | solubility in MEK [4]: B (Evaluation B: 10% by weigh or more and less than 50% by weight)

Oc1cc2ccccc2c(C(c2ccc(-c3ccccc3)cc2)c2c(O)c(O)cc3ccccc23)c1O [BisN-6]
Solubility test of compound in safe solvent PGME [1]: A (A: 5.0% by weight≦dissolution amount) | Solubility test of compound in safe solvent PGMEA [1]: A (A: 5.0% by weight≦dissolution amount) | thermal decomposition temperature [2]: 250 °C | glass transition point [3]: 130 °C | solubility in MEK [4]: B (Evaluation B: 10% by weigh or more and less than 50% by weight)

Oc1ccc2c3c(ccc2c1)Oc1ccc2cc(O)ccc2c1C3c1cc2ccccc2c2ccccc12 [XBisN-8]
Solubility test of compound in safe solvent PGME [1]: A (A: 5.0% by weight≦dissolution amount) | Solubility test of compound in safe solvent PGMEA [1]: A (A: 5.0% by weight≦dissolution amount) | thermal decomposition temperature [2]: 415 °C | glass transition point [3]: 155 °C | solubility in MEK [4]: B (Evaluation B: 10% by weigh or more and less than 50% by weight)

Oc1ccc2c(C(c3cccc4ccccc34)c3c(O)ccc4cc(O)ccc34)c(O)ccc2c1 [BisN-7]
Solubility test of compound in safe solvent PGME [1]: A (A: 5.0% by weight≦dissolution amount) | Solubility test of compound in safe solvent PGMEA [1]: A (A: 5.0% by weight≦dissolution amount) | thermal decomposition temperature [2]: 255 °C | glass transition point [3]: 135 °C | solubility in MEK [4]: B (Evaluation B: 10% by weigh or more and less than 50% by weight)

Oc1ccc2c(C3(c4c(O)ccc5cc(O)ccc45)c4ccccc4-c4ccccc43)c(O)ccc2c1 [BisN-11]
Solubility test of compound in safe solvent PGME [1]: A (A: 5.0% by weight≦dissolution amount) | Solubility test of compound in safe solvent PGMEA [1]: A (A: 5.0% by weight≦dissolution amount) | thermal decomposition temperature [2]: 250 °C | glass transition point [3]: 135 °C | solubility in MEK [4]: B (Evaluation B: 10% by weigh or more and less than 50% by weight)

Oc1ccc2c(O)cccc2c1C(c1ccc(-c2ccccc2)cc1)c1c(O)ccc2c(O)cccc12 [BisN-4]
Solubility test of compound in safe solvent PGME [1]: A (A: 5.0% by weight≦dissolution amount) | Solubility test of compound in safe solvent PGMEA [1]: A (A: 5.0% by weight≦dissolution amount) | thermal decomposition temperature [2]: 250 °C | glass transition point [3]: 130 °C | solubility in MEK [4]: B (Evaluation B: 10% by weigh or more and less than 50% by weight)

Oc1ccc2c3c(ccc2c1)Oc1ccc2cc(O)ccc2c1C3c1cc2cccc3ccc4cccc1c4c32 [XBisN-9]
Solubility test of compound in safe solvent PGME [1]: A (A: 5.0% by weight≦dissolution amount) | Solubility test of compound in safe solvent PGMEA [1]: A (A: 5.0% by weight≦dissolution amount) | thermal decomposition temperature [2]: 420 °C | glass transition point [3]: 155 °C | solubility in MEK [4]: B (Evaluation B: 10% by weigh or more and less than 50% by weight)

Oc1cc(O)c2cc1C(c1ccc(C3CCCCC3)cc1)c1cc(c(O)cc1O)C(c1ccc(C3CCCCC3)cc1)c1cc(c(O)cc1O)C(c1ccc(C3CCCCC3)cc1)c1cc(c(O)cc1O)C2c1ccc(C2CCCCC2)cc1 (stereo not shown) [CR-1, reference compound]
Solubility test of compound in safe solvent PGME [1]: B (B: 3.0% by weight≦dissolution amount<5.0% by weight) | Solubility test of compound in safe solvent PGMEA [1]: C (C: dissolution amount<3.0% by weight)

OCCOc1ccc2c3c(ccc2c1)Oc1ccc2cc(OCCO)ccc2c1C3c1ccc(-c2ccccc2)cc1 [Example 29]
thermal decomposition temperature [2]: 375 °C | glass transition point [3]: 132 °C

Cc1cc(C(c2ccc3ccc(C(c4cc(C)c(O)c(C)c4C)c4cc(C)c(O)c(C)c4C)cc3c2)c2cc(C)c(O)c(C)c2C)c(C)c(C)c1O [TetP-1, reference compound]
Solubility test of compound in safe solvent PGME [1]: A (A: 5.0% by weight≦dissolution amount) | Solubility test of compound in safe solvent PGMEA [1]: A (A: 5.0% by weight≦dissolution amount)
